This note sets out measurements from patent US20260306644A1, “ANTIBODY RECRUITING MOLECULES FOR THE TREATMENT OF CORONAVIRUS DISEASE-19” (priority 2023, published 2026).

Where “and” joins values, the source holds several entries; their conditions need not be identical. Equal values may be shown once.

For assay [1], the target named is SARS-CoV-2 Spike protein (Severe acute respiratory syndrome coronavirus 2, UniProt P0DTC2). In words: Ternary binding of SARS-CoV-2 Spike protein (293T cells expressing Spike-GFP, IgG-AF647, flow cytometry). It is filed as cell-based. The following applies: 293T cells expressing Spike-GFP; IgG-AF647 10 μg/ml; repeat values/batches listed separately; read-out: SARS-CoV-2 Ternary binding EC50.

Assay [2] has as its target T1, SARS-CoV-2 Spike A (wild-type) (Severe acute respiratory syndrome coronavirus 2, UniProt P0DTC2).
T1 construct: purchased Meso Scale Diagnostics, LLC V-PLEX SARS-CoV-2 Panel 13 (ACE2) Kit / Panel 23 (ACE2) Kit
In words: MSD ACE2 competition assay (inhibition of Spike binding with ACE2, ECL), A (wild-type). The conditions noted are these: IC50 Wild Type, Wild Type Spike.

As for `CC[C@H](C)[C@H](NC(=O)[C@H](CC(C)C)NC(=O)[C@H](CC(=O)O)NC(=O)[C@H](CO)NC(=O)[C@@H](NC(=O)[C@H](CCCNC(=N)N)NC(=O)[C@H](CCSC)NC(=O)[C@H](CO)NC(=O)[C@H](C)NC(=O)[C@H](CCC(=O)O)NC(=O)[C@H](C)NC(=O)[C@H](Cc1c[nH]cn1)NC(=O)CNC(=O)[C@H](CC(C)C)NC(=O)[C@H](CCC(=O)O)NC(=O)[C@H](CC(=O)O)NC(=O)[C@H](CC(C)C)NC(=O)[C@H](CC(C)C)NC(=O)[C@H](CCCNC(=N)N)NC(=O)[C@H](CCSC)NC(=O)[C@@H](NC(=O)[C@H](CCC(=O)O)NC(=O)[C@H](Cc1ccc(O)cc1)NC(=O)[C@@H](NC(=O)[C@H](CCCCN)NC(=O)[C@H](CCC(N)=O)NC(=O)[C@H](CC(C)C)NC(=O)[C@@H](NC(=O)[C@H](Cc1c[nH]c2ccccc12)NC(=O)[C@H](CCC(=O)O)NC(=O)[C@H](CCCCN)NC(=O)[C@@H](N)CC(=O)O)[C@@H](C)CC)[C@@H](C)CC)[C@@H](C)CC)C(C)C)C(=O)N[C@@H](Cc1ccc(O)cc1)C(=O)N[C@@H](CCC(=O)O)C(=O)N[C@@H](Cc1ccccc1)C(=O)N[C@@H](CCSC)C(=O)N[C@@H](CCCCN)C(=O)N[C@@H](CCCCN)C(=O)NCC(=O)N[C@@H](CC(=O)O)C(=O)N[C@H]1CSSC[C@@H](C(=O)N[C@H](C(=O)O)[C@@H](C)O)NC(=O)[C@H](Cc2c[nH]c3ccccc23)NC(=O)[C@H](C(C)C)NC(=O)[C@H](CC(C)C)NC(=O)[C@H](CCC(=O)O)NC(=O)CNC(=O)[C@H](CC(C)C)NC(=O)[C@H](Cc2c[nH]cn2)NC(=O)[C@H](Cc2c[nH]c3ccccc23)NC(=O)[C@H](C)NC1=O` [Compound 113], the EC50 in assay [1] was 0.48 nM and 0.47 nM. For the same compound, in assay [2], the 50% inhibitory concentration (IC50) was 41.2 nM and 52.9 nM.
For the compound `CC[C@H](C)[C@H](NC(=O)[C@H](CC(C)C)NC(=O)[C@H](CC(=O)O)NC(=O)[C@H](CO)NC(=O)[C@@H](NC(=O)[C@H](CCCNC(=N)N)NC(=O)[C@H](CCSC)NC(=O)[C@H](CO)NC(=O)[C@H](C)NC(=O)[C@H](CCC(=O)O)NC(=O)[C@H](C)NC(=O)[C@H](Cc1c[nH]cn1)NC(=O)CNC(=O)[C@H](CC(C)C)NC(=O)[C@H](CCC(=O)O)NC(=O)[C@H](CC(=O)O)NC(=O)[C@H](CC(C)C)NC(=O)[C@H](CC(C)C)NC(=O)[C@H](CCCNC(=N)N)NC(=O)[C@H](CCSC)NC(=O)[C@@H](NC(=O)[C@H](CCC(=O)O)NC(=O)[C@H](Cc1ccc(O)cc1)NC(=O)[C@@H](NC(=O)[C@H](CCCCN)NC(=O)[C@H](CCC(N)=O)NC(=O)[C@H](CC(C)C)NC(=O)[C@@H](NC(=O)[C@H](Cc1c[nH]c2ccccc12)NC(=O)[C@H](CCC(=O)O)NC(=O)[C@H](CCCCN)NC(=O)[C@@H](N)CC(=O)O)[C@@H](C)CC)[C@@H](C)CC)[C@@H](C)CC)C(C)C)C(=O)N[C@@H](Cc1ccc(O)cc1)C(=O)N[C@@H](CCC(=O)O)C(=O)N[C@@H](Cc1ccccc1)C(=O)N[C@@H](CCSC)C(=O)N[C@@H](CCCCN)C(=O)N[C@@H](CCCCN)C(=O)N[C@@H](CC(=O)O)C(=O)N[C@H]1CSSC[C@@H](C(=O)N[C@H](C(=O)O)[C@@H](C)O)NC(=O)[C@H](Cc2c[nH]c3ccccc23)NC(=O)[C@H](C(C)C)NC(=O)[C@H](CC(C)C)NC(=O)[C@H](CCC(=O)O)NC(=O)CNC(=O)[C@H](CC(C)C)NC(=O)[C@H](Cc2c[nH]cn2)NC(=O)[C@H](Cc2c[nH]c3ccccc23)NC(=O)[C@H](C)NC1=O` [Compound 115], in assay [1], the EC50 was 0.34 nM and 0.36 nM and 0.23 nM and 0.26 nM. The compound also came in with an IC50 in assay [2] of 45.7 nM.
For the compound `CC[C@H](C)[C@H](NC(C)=O)C(=O)N[C@@H](CC(C)C)C(=O)N[C@@H](CCC(N)=O)C(=O)N[C@@H](CCCCN)C(=O)N[C@H](C(=O)N[C@@H](Cc1ccc(O)cc1)C(=O)N[C@@H](CCC(=O)O)C(=O)N[C@H](C(=O)N[C@@H](CCSC)C(=O)N[C@@H](CCCNC(=N)N)C(=O)N[C@@H](CC(C)C)C(=O)N[C@@H](CC(C)C)C(=O)N[C@@H](CC(=O)O)C(=O)N[C@@H](CCC(=O)O)C(=O)N[C@@H](CC(C)C)C(=O)NCC(=O)N[C@@H](Cc1c[nH]cn1)C(=O)N[C@@H](C)C(=O)N[C@@H](CCC(=O)O)C(=O)N[C@@H](C)C(=O)N[C@@H](CO)C(=O)N[C@@H](CCSC)C(=O)N[C@@H](CCCNC(=N)N)C(=O)N[C@H](C(=O)N[C@@H](CO)C(=O)N[C@@H](CC(=O)O)C(=O)N[C@@H](CC(C)C)C(=O)N[C@H](C(=O)N[C@@H](Cc1ccc(O)cc1)C(=O)N[C@@H](CCC(=O)O)C(=O)N[C@@H](Cc1ccccc1)C(=O)N[C@@H](CCSC)C(=O)N[C@@H](CCCCN)C(=O)N[C@@H](CCCCN)C(=O)NCC(=O)N[C@@H](CC(=O)O)C(=O)N[C@H]1CSSC[C@@H](C(=O)N[C@H](C(=O)O)[C@@H](C)O)NC(=O)[C@H](Cc2c[nH]c3ccccc23)NC(=O)[C@H](C(C)C)NC(=O)[C@H](CC(C)C)NC(=O)[C@H](CCC(=O)O)NC(=O)CNC(=O)[C@H](CC(C)C)NC(=O)[C@H](Cc2c[nH]cn2)NC(=O)[C@H](Cc2c[nH]c3ccccc23)NC(=O)[C@H](C)NC1=O)[C@@H](C)CC)C(C)C)[C@@H](C)CC)[C@@H](C)CC` [Compound 116], the EC50 in assay [1] was 9.3 nM and 11 nM. The IC50 in assay [2] is > 100 nM (2×) and 114 nM.
As for `CC[C@H](C)[C@H](N)C(=O)N[C@@H](CC(C)C)C(=O)N[C@@H](CCC(N)=O)C(=O)N[C@@H](CCCCN)C(=O)N[C@H](C(=O)N[C@@H](Cc1ccc(O)cc1)C(=O)N[C@@H](CCC(=O)O)C(=O)N[C@H](C(=O)N[C@@H](CCSC)C(=O)N[C@@H](CCCNC(=N)N)C(=O)N[C@@H](CC(C)C)C(=O)N[C@@H](CC(C)C)C(=O)N[C@@H](CC(=O)O)C(=O)N[C@@H](CCC(=O)O)C(=O)N[C@@H](CC(C)C)C(=O)NCC(=O)N[C@@H](Cc1c[nH]cn1)C(=O)N[C@@H](C)C(=O)N[C@@H](CCC(=O)O)C(=O)N[C@@H](C)C(=O)N[C@@H](CO)C(=O)N[C@@H](CCSC)C(=O)N[C@@H](CCCNC(=N)N)C(=O)N[C@H](C(=O)N[C@@H](CO)C(=O)N[C@@H](CC(=O)O)C(=O)N[C@@H](CC(C)C)C(=O)N[C@H](C(=O)N[C@@H](Cc1ccc(O)cc1)C(=O)N[C@@H](CCC(=O)O)C(=O)N[C@@H](Cc1ccccc1)C(=O)N[C@@H](CCSC)C(=O)N[C@@H](CCCCN)C(=O)N[C@@H](CCCCN)C(=O)NCC(=O)N[C@@H](CC(=O)O)C(=O)N[C@H]1CSSC[C@@H](C(=O)N[C@H](C(=O)O)[C@@H](C)O)NC(=O)[C@H](Cc2c[nH]c3ccccc23)NC(=O)[C@H](C(C)C)NC(=O)[C@H](CC(C)C)NC(=O)[C@H](CCC(=O)O)NC(=O)CNC(=O)[C@H](CC(C)C)NC(=O)[C@H](Cc2c[nH]cn2)NC(=O)[C@H](Cc2c[nH]c3ccccc23)NC(=O)[C@H](C)NC1=O)[C@@H](C)CC)C(C)C)[C@@H](C)CC)[C@@H](C)CC` [Compound 117], the EC50 in assay [1] is 4.9 nM and 4.4 nM. In addition, the half-maximal inhibitory concentration (IC50) in assay [2] was 54.8 nM and 61.1 nM.
For `CC[C@H](C)[C@H](NC(=O)[C@H](CC(C)C)NC(=O)[C@H](CC(=O)O)NC(=O)[C@H](CO)NC(=O)[C@@H](NC(=O)[C@H](CCCNC(=N)N)NC(=O)[C@H](CCSC)NC(=O)[C@H](CO)NC(=O)[C@H](C)NC(=O)[C@H](CCC(=O)O)NC(=O)[C@H](C)NC(=O)[C@H](Cc1c[nH]cn1)NC(=O)CNC(=O)[C@H](CC(C)C)NC(=O)[C@H](CCC(=O)O)NC(=O)[C@H](CC(=O)O)NC(=O)[C@H](CC(C)C)NC(=O)[C@H](CC(C)C)NC(=O)[C@H](CCCNC(=N)N)NC(=O)[C@H](CCSC)NC(=O)[C@@H](NC(=O)[C@H](CCC(=O)O)NC(=O)[C@H](Cc1ccc(O)cc1)NC(=O)[C@@H](NC(=O)[C@H](CCCCN)NC(=O)[C@H](CCC(N)=O)NC(=O)[C@H](CC(C)C)NC(=O)[C@@H](NC(=O)[C@H](Cc1c[nH]c2ccccc12)NC(=O)[C@H](CCC(=O)O)NC(=O)[C@H](CCCCN)NC(=O)[C@H](CC(=O)O)NC(=O)[C@@H](NC(=O)[C@@H]1CSSC[C@H](NC(=O)[C@H](CC(=O)O)NC(C)=O)C(=O)N[C@@H](C)C(=O)N[C@@H](Cc2c[nH]c3ccccc23)C(=O)N[C@@H](Cc2c[nH]cn2)C(=O)N[C@@H](CC(C)C)C(=O)NCC(=O)N[C@@H](CCC(=O)O)C(=O)N[C@@H](CC(C)C)C(=O)N[C@@H](C(C)C)C(=O)N[C@@H](Cc2c[nH]c3ccccc23)C(=O)N1)[C@@H](C)O)[C@@H](C)CC)[C@@H](C)CC)[C@@H](C)CC)C(C)C)C(=O)N[C@@H](Cc1ccc(O)cc1)C(=O)N[C@@H](CCC(=O)O)C(=O)N[C@@H](Cc1ccccc1)C(=O)N[C@@H](CCSC)C(=O)N[C@@H](CCCCN)C(=O)N[C@@H](CCCCN)C(=O)O` [Compound 121], the EC50 in assay [1] is 0.83 nM and 0.78 nM. Further, the IC50 in assay [2] was determined as 10.8 nM.
Regarding `CC[C@H](C)[C@H](NC(=O)[C@H](CC(C)C)NC(=O)[C@H](CC(=O)O)NC(=O)[C@H](CO)NC(=O)[C@@H](NC(=O)[C@H](CCCNC(=N)N)NC(=O)[C@H](CCSC)NC(=O)[C@H](CO)NC(=O)[C@H](C)NC(=O)[C@H](CCC(=O)O)NC(=O)[C@H](C)NC(=O)[C@H](Cc1c[nH]cn1)NC(=O)CNC(=O)[C@H](CC(C)C)NC(=O)[C@H](CCC(=O)O)NC(=O)[C@H](CC(=O)O)NC(=O)[C@H](CC(C)C)NC(=O)[C@H](CC(C)C)NC(=O)[C@H](CCCNC(=N)N)NC(=O)[C@H](CCSC)NC(=O)[C@@H](NC(=O)[C@H](CCC(=O)O)NC(=O)[C@H](Cc1ccc(O)cc1)NC(=O)[C@@H](NC(=O)[C@H](CCCCN)NC(=O)[C@H](CCC(N)=O)NC(=O)[C@H](CC(C)C)NC(=O)[C@@H](NC(=O)[C@H](Cc1c[nH]c2ccccc12)NC(=O)[C@H](CCC(=O)O)NC(=O)[C@H](CCCCN)NC(=O)[C@H](CC(=O)O)NC(C)=O)[C@@H](C)CC)[C@@H](C)CC)[C@@H](C)CC)C(C)C)C(=O)N[C@@H](Cc1ccc(O)cc1)C(=O)N[C@@H](CCC(=O)O)C(=O)N[C@@H](Cc1ccccc1)C(=O)N[C@@H](CCSC)C(=O)N[C@@H](CCCCN)C(=O)N[C@@H](CCCCN)C(=O)NCC(=O)N[C@@H](CC(=O)O)C(=O)N[C@H]1CSSC[C@@H](C(=O)N[C@H](C(N)=O)[C@@H](C)O)NC(=O)[C@H](Cc2c[nH]c3ccccc23)NC(=O)[C@H](C(C)C)NC(=O)[C@H](CC(C)C)NC(=O)[C@H](CCC(=O)O)NC(=O)CNC(=O)[C@H](CC(C)C)NC(=O)[C@H](Cc2c[nH]cn2)NC(=O)[C@H](Cc2c[nH]c3ccccc23)NC(=O)[C@H](C)NC1=O` [Compound 129], in assay [1], the EC50 was 2.3 nM and 3 nM. Besides, the IC50 in assay [2] was found to be 25 nM.

The term EC50 denotes the midpoint of the concentration-response curve. Usually IC50 stands for the concentration that inhibits the measured activity by half. Read a low IC50 as higher potency.
